Data taken from patent US20250049036A1 (priority 2021, published 2025).

How the values were obtained:
Phytophthora infestans = assay: microbe, parasite or virus in culture; format: cell-based; details: 168 h, read-out: control compared to the untreated check
Pyricularia oryzae = assay: microbe, parasite or virus in culture; format: cell-based; details: 168 h, read-out: control compared to the untreated check
Parastagonospora nodorum = Parastagonospora nodorum (PARANO) spore growth inhibition in liquid medium, 96-well microtiter plate, OD 600; format: cell-based; details: spore suspension in PDB liquid medium, 18° C., 5-6 days, OD at 600, read-out: control compared to the untreated check
Procedure: Potato dextrose (PDB) liquid medium (Difco) containing a PARANO (10^5 spores/ml) spore suspension was prepared. For the inhibition assay, each test compound was solved in dimethyl sulfoxide. 100 μl of the test compound in media-solution was added to a 96-well microtiter plate, consequently, the same volume (100 μl) of spore suspension was added to the well making the final test concentrations and the plate was incubated at 18° C. for 5-6 days. The growth inhibition was evaluated by measuring the OD at 600. Percent inhibition was calculated with the below formula: […]

Botrytis cinerea = Botrytis cinerea liq. (BOTRCI) spore growth inhibition in liquid medium, 96-well microtiter plate, OD 405 nm; format: cell-based; details: spore suspension in YBA liquid medium, 22° C., 5-6 days, OD at 405 nm, read-out: control compared to the untreated check
Procedure: Yeast bacterial peptone and sodium acetate (YBA) liquid medium containing a BOTRCI (10^4 spores/ml) spore suspension was prepared. For the inhibition assay, each test compound was solved in dimethyl sulfoxide. 100 μl of the test compound in media-solution was added to a 96-well microtiter plate, consequently, the same volume (100 μl) of spore suspension was added to the well making the final test concentrations and the plate was incubated at 22° C. for 5-6 days. The growth inhibition was evaluated by measuring the OD at 405 nm. Percent inhibition was calculated with the below formula:
Where T=treatment, C=control, and B=blank

Colletotrichum capsici = Colletotrichum capsici (anthracnose) mycelial radial growth on potato dextrose agar; format: cell-based; details: Colletotrichum truncatum, 168 h, 25° C., seven days, read-out: control compared to the untreated check
Procedure: The compounds were dissolved in 0.3% dimethyl sulfoxide and then added to potato dextrose agar medium just prior to dispensing it into petri dishes. 5 mL medium, with the compound in the desired concentration, was dispensed into 60 mm sterile petri-plates. After solidification, each plate was seeded with a 5 mm size mycelial disc taken from the periphery of an actively growing virulent culture plate. The plates were incubated in growth chambers at 25° C. temperature and 60% relative humidity for seven days and the radial growth was measured and compared to the one of the untreated control.

Phakopsora pachyrhizi = Phakopsora pachyrhizi test on soybean, preventive, greenhouse; format: in vivo; details: preventive spray on soybean, inoculated one day after treatment, read-out: control (efficacy, disease severity) compared to the untreated check
Procedure: The respective compound was dissolved in 2% dimethyl sulfoxide/acetone and then mixed with water containing emulsifier to the calibrated spray volume of 30 mL. Each spray solution was poured into a spray bottle for further application.
To test the preventive activity of a compound, healthy young soybean plants, raised in the greenhouse, were sprayed with the active compound preparation at the stated application rate inside the spray cabinets using hollow cone nozzles. One day after treatment, the plants were inoculated with a conidial suspension containing 2×10^5 Phakopsora pachyrhizi inoculum. The inoculated plants were then kept in a greenhouse chamber at 22-24° C. temperature and 80-90% relative humidity for disease expression.

Cn1ccc2cc(C(=O)NC(C)(C)COc3ccnc(Cl)c3)cnc21 [Compound 229, N-(1-((2-chloropyridin-4-yl)oxy)-2-methylpropan-2-yl)-1-methyl-1H-pyrrolo[2,3-b]pyridine-5-carboxamide]
inhibition of growth at 300 ppm (Phytophthora infestans): ≥ 70%

Cc1cccc(CC(NC(=O)c2cnc3ccsc3c2)C(C)(C)O)c1 (centres unmarked) [Compound 114, N-(3-hydroxy-3-methyl-1-(m-tolyl)butan-2-yl)thieno[3,2-b] pyridine-6-carboxamide]
inhibition of growth at 300 ppm (Phytophthora infestans): ≥ 70%

CON(C(=O)c1cnc2c(ccn2C)c1)C(C)Cc1ccccc1F (centres unmarked) [Compound 239, N-(1-(2-fluorophenyl)propan-2-yl)-N-methoxy-1-methyl-1H-pyrrolo[2,3-b]pyridine-5-carboxamide]
inhibition of growth at 300 ppm (Pyricularia oryzae): ≥ 70% | inhibition of growth at 300 ppm (Parastagonospora nodorum): ≥ 70% | inhibition of growth at 300 ppm (Botrytis cinerea): ≥ 70%

CC(C)(COc1ccccn1)NC(=O)c1cnc2ccsc2c1 [Compound 212, N-(2-methyl-1-(pyridin-2-yloxy)propan-2-yl)thieno[3,2-b] pyridine-6-carboxamide]
inhibition of growth at 300 ppm (Phytophthora infestans): ≥ 70%

COc1nc2c(cc1C(=O)NCC1(c3ccccc3)CC1)CCC2 [Compound 247, 2-methoxy-N-((1-phenylcyclopropyl)methyl)-6,7-dihydro-5H-cyclopenta[b]pyridine-3-carboxamide]
inhibition of growth at 300 ppm (Colletotrichum capsici): ≥ 70% | inhibition of growth at 300 ppm (Parastagonospora nodorum): ≥ 70% | inhibition of growth at 300 ppm (Botrytis cinerea): ≥ 70%

Cn1cc(Br)c2cc(C(=O)NC(C)(C)COc3ccc(F)cn3)cnc21 [Compound 216, 3-bromo-N-(1-((5-fluoropyridin-2-yl)oxy)-2-methylpropan-2-yl)-1-methyl-1H-pyrrolo[2,3-b]pyridine-5-carboxamide]
inhibition of growth at 300 ppm (Phytophthora infestans): ≥ 70%

O=C(NCC1(c2ccccc2)CC1)c1cc2c(nc1Cl)CCC2 [Compound 248, 2-chloro-N-((1-phenylcyclopropyl)methyl)-6,7-dihydro-5H-cyclopenta[b]pyridine-3-carboxamide]
inhibition of growth at 300 ppm (Phytophthora infestans): ≥ 70%

Cc1ccc(COCC(C)(C)NC(=O)c2cnc3c(c2)c(Br)cn3C)c(C)c1 [Compound 201, 3-bromo-N-(1-((2,4-dimethylbenzyl)oxy)-2-methylpropan-2-yl)-1-methyl-1H-pyrrolo[2,3-b]pyridine-5-carboxamide]
inhibition of growth at 300 ppm (Phytophthora infestans): ≥ 70%

Cn1cc(Cl)c2cc(C(=O)NC(C)(C)COc3ccccn3)cnc21 [Compound 219, 3-chloro-1-methyl-N-(2-methyl-1-(pyridin-2-yloxy)propan-2-yl)-1H-pyrrolo[2,3-b] pyridine-5-carboxamide]
inhibition of growth at 300 ppm (Pyricularia oryzae): ≥ 70% | inhibition of growth at 300 ppm (Botrytis cinerea): ≥ 70%

CC(C)(COc1ccc(F)cn1)NC(=O)c1cnc2c(c1)CCC2 [Compound 233, N-(1-((5-fluoropyridin-2-yl)oxy)-2-methylpropan-2-yl)-6,7-dihydro-5H-cyclopenta[b]pyridine-3-carboxamide]
inhibition of growth at 300 ppm (Phytophthora infestans): ≥ 70%

COc1nc2c(ccn2C)cc1C(=O)NC(C)(C)Cc1ccccc1 [Compound 91, 6-methoxy-1-methyl-N-(2-methyl-1-phenylpropan-2-yl)-1H-pyrrolo[2,3-b] pyridine-5-carboxamide]
inhibition of growth at 300 ppm (Phytophthora infestans): ≥ 70%

COc1nc2c(cc1C(=O)NC(C)CCc1ccccc1)CCC2 (centres unmarked) [Compound 249, 2-methoxy-N-(4-phenylbutan-2-yl)-6,7-dihydro-5H-cyclopenta[b]pyridine-3-carboxamide]
inhibition of growth at 300 ppm (Phytophthora infestans): ≥ 70% | inhibition of growth at 300 ppm (Parastagonospora nodorum): ≥ 70%

Cn1cc(Cl)c2cc(C(=O)NC(C)(C)COc3ccc(F)cn3)cnc21 [Compound 221, 3-chloro-N-(1-((5-fluoropyridin-2-yl)oxy)-2-methylpropan-2-yl)-1-methyl-1H-pyrrolo[2,3-b]pyridine-5-carboxamide]
inhibition of growth at 300 ppm (Botrytis cinerea): ≥ 70%

CC(C)(COc1ccnc(Cl)c1)NC(=O)c1cc2c(nc1Cl)CCC2 [Compound 244, 2-chloro-N-(1-((2-chloropyridin-4-yl)oxy)-2-methylpropan-2-yl)-6,7-dihydro-5H-cyclopenta[b]pyridine-3-carboxamide]
inhibition of growth at 300 ppm (Parastagonospora nodorum): ≥ 70% | inhibition of growth at 300 ppm (Botrytis cinerea): ≥ 70%

COc1cc(C(O)C(C)(C)NC(=O)c2cnc3c(ccn3C)c2)ccc1F (centres unmarked) [Compound 123, N-(1-(4-fluoro-3-methoxyphenyl)-1-hydroxy-2-methylpropan-2-yl)-1-methyl-1H-pyrrolo[2,3-b]pyridine-5-carboxamide]
inhibition of growth at 300 ppm (Phytophthora infestans): ≥ 70%

CC(c1ccccc1)C(C)(C)NC(=O)c1cnc2c(ccn2C)c1 (centres unmarked) [Compound 8, 1-methyl-N-(2-methyl-3-phenylbutan-2-yl)-1H-pyrrolo[2,3-b] pyridine-5-carboxamide]
inhibition of growth at 300 ppm (Pyricularia oryzae): ≥ 70% | inhibition of growth at 300 ppm (Colletotrichum capsici): ≥ 70% | inhibition of growth at 300 ppm (Parastagonospora nodorum): ≥ 70% | inhibition of growth at 300 ppm (Botrytis cinerea): ≥ 70%

CC(C)(CO)NC(=O)c1cnc2ccsc2c1 [Compound 111, N-(1-hydroxy-2-methylpropan-2-yl)thieno[3,2-b] pyridine-6-carboxamide]
inhibition of growth at 300 ppm (Phytophthora infestans): ≥ 70%

CC(C)(COc1ccccn1)NC(=O)c1cc2c(nc1Cl)CCC2 [Compound 242, 2-chloro-N-(2-methyl-1-(pyridin-2-yloxy)propan-2-yl)-6,7-dihydro-5H-cyclopenta[b]pyridine-3-carboxamide]
inhibition of growth at 300 ppm (Botrytis cinerea): ≥ 70%

CC(C)(COc1ccc(F)cn1)NC(=O)c1cnc2ccsc2c1 [Compound 207, N-(1-((5-fluoropyridin-2-yl)oxy)-2-methylpropan-2-yl)thieno[3,2-b] pyridine-6-carboxamide]
inhibition of growth at 300 ppm (Phytophthora infestans): ≥ 70%

CC(C)(COC(=O)c1cccc(F)c1)NC(=O)c1cnc2cc[nH]c2c1 [Compound 156, 2-methyl-2-(1H-pyrrolo[3,2-b]pyridine-6-carboxamido)propyl 3-fluorobenzoate]
inhibition of growth at 300 ppm (Phytophthora infestans): ≥ 70%

Cc1cccc(CC(C)(C)NC(=O)c2cnc3c(ccn3C)c2)c1 [Compound 27, 1-methyl-N-(2-methyl-1-(m-tolyl)propan-2-yl)-1H-pyrrolo[2,3-b] pyridine-5-carboxamide]
inhibition of growth at 300 ppm (Phytophthora infestans): ≥ 70% | inhibition of growth at 300 ppm (Parastagonospora nodorum): ≥ 70%

Cn1cc(Br)c2cc(C(=O)NC(C)(C)COCc3ccccc3C#N)cnc21 [Compound 196]
inhibition of growth at 300 ppm (Phytophthora infestans): ≥ 70%

O=C(NC1(Cc2ccccc2)CC1)c1cc2c(nc1Cl)CCC2 [Compound 246, N-(1-benzylcyclopropyl)-2-chloro-6,7-dihydro-5H-cyclopenta[b]pyridine-3-carboxamide]
inhibition of growth at 300 ppm (Phytophthora infestans): ≥ 70%

COc1cc(C(O)C(C)(C)NC(=O)c2cnc3ccsc3c2)ccc1F (centres unmarked) [Compound 119, N-(1-(4-fluoro-3-methoxyphenyl)-1-hydroxy-2-methylpropan-2-yl)thieno[3,2-b] pyridine-6-carboxamide]
inhibition of growth at 300 ppm (Pyricularia oryzae): ≥ 70% | inhibition of growth at 300 ppm (Phytophthora infestans): ≥ 70% | inhibition of growth at 300 ppm (Parastagonospora nodorum): ≥ 70% | pest or weed control at 500 ppm (Phakopsora pachyrhizi): ≥ 70%

C=C(C)CC(C)(COc1ccccc1F)NC(=O)c1cnc2cc[nH]c2c1 (centres unmarked) [Compound 175, N-(1-(2-fluorophenoxy)-2,4-dimethylpent-4-en-2-yl)-1H-pyrrolo[3,2-b] pyridine-6-carboxamide]
inhibition of growth at 300 ppm (Colletotrichum capsici): ≥ 70% | inhibition of growth at 300 ppm (Phytophthora infestans): ≥ 70% | inhibition of growth at 300 ppm (Parastagonospora nodorum): ≥ 70%

CC(CCc1ccccc1)NC(=O)c1cc2c(nc1Cl)CCC2 (centres unmarked) [Compound 250, 2-chloro-N-(4-phenylbutan-2-yl)-6,7-dihydro-5H-cyclopenta[b]pyridine-3-carboxamide]
inhibition of growth at 300 ppm (Phytophthora infestans): ≥ 70%

Cn1ccc2cc(C(=O)NC(C)(C)Cc3ccc(F)cc3F)cnc21 [Compound 20]
inhibition of growth at 300 ppm (Pyricularia oryzae): ≥ 70% | inhibition of growth at 300 ppm (Colletotrichum capsici): ≥ 70% | inhibition of growth at 300 ppm (Botrytis cinerea): ≥ 70%

Cn1cc(Br)c2cc(C(=O)NC(C)(C)COCc3cc(F)ccc3Cl)cnc21 [Compound 232, 3-bromo-N-(1-((2-chloro-5-fluorobenzyl)oxy)-2-methylpropan-2-yl)-1-methyl-1H-pyrrolo[2,3-b]pyridine-5-carboxamide]
inhibition of growth at 300 ppm (Parastagonospora nodorum): ≥ 70% | inhibition of growth at 300 ppm (Botrytis cinerea): ≥ 70%
